Where two headings read alike, the source gives them in different places.
Tests used:
LXR α LBD protein [1] = biological target: T1, LXR α LBD protein (Homo sapiens (Human), UniProt Q13133); experiment: LXR α radioligand binding assay (SPA, competition with [3H]TO901317); conditions: read-out: LXRα Binding Ki
[2] = biological target: Gal4 DNA binding domain fused to the LBD of LXRα in HEK293 cells (Homo sapiens (Human), UniProt Q13133); experiment: LXR luciferase transcriptional reporter gene assay, agonist mode, LXRα; type: cell-based; conditions: for EC50: read-out: Cell LXRα EC50
Sequence of Gal4 DNA binding domain fused to the LBD of LXRα in HEK293 cells (Q13133 209-447): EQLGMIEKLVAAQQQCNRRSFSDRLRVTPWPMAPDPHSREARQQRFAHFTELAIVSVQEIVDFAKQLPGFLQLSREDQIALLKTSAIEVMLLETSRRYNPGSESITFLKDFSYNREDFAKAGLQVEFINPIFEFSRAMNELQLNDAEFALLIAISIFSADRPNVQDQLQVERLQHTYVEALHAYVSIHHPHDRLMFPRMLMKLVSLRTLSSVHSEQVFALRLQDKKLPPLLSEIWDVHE

[3] = biological target: Gal4 DNA binding domain fused to the LBD of LXRβ in HEK293 cells (Homo sapiens (Human), UniProt P55055); experiment: cell-based
Sequence of Gal4 DNA binding domain fused to the LBD of LXRβ in HEK293 cells (P55055 222-460 limits assumed): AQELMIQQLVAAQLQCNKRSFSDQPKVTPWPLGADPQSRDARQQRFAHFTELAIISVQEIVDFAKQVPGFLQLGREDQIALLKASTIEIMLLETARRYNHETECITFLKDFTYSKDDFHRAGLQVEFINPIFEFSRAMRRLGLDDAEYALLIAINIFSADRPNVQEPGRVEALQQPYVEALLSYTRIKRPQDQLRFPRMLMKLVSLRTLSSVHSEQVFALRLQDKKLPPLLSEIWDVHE

LXR α LBD protein [4] = biological target: T1, LXR α LBD protein; experiment: Human LXRα coactivator recruitment FRET assay, agonist mode; type: biochemical; conditions: agonist mode
Procedure: (§1) Two μL of the DMSO solutions were transferred to the plate and 38 μL of 10 nM LXRα-LBD or LXRβ-LBD (2×) were added immediately to the wells. The plate was shaken for 5 min at rt on an orbital micro shaker (DPC MicroMix® 5), after which 40 μL of 200 nM fluorescein-SRC2-3 peptide and 20 nM Terbium-anti-GST-antibody (Cat# PV3550, Life Technologies, Grand Island, N.Y.) solution (4×) were added to all. The plate was sealed and shaken for 2 min at rt, and incubated at rt for 2 h without agitation. […] The delay and window times were set at 100 and 200 microseconds, respectively. […] The percent control vs. compound concentration data were fit into a four-parameter model, and EC50 values were calculated from the fit as the concentrations corresponding to the inflection points on the concentration-response curves.

LXR β LBD protein [5] = biological target: T2, LXR β LBD protein (Homo sapiens (Human), UniProt P55055); experiment: biochemical; type: binding; conditions: read-out: LXRβ Binding Ki
Target sequence in this assay (P55055 222-460 limits assumed): as above

LXR β LBD protein [6] = biological target: T2, LXR β LBD protein; experiment: biochemical; type: biochemical; conditions: agonist mode; for EC50: read-out: FRET LXRβ EC50
Procedure: as §1
Target sequence in this assay (P55055 222-460): as the sequence (P55055 222-460 limits assumed) above

T1 sequence (Q13133 209-447): as the sequence (Q13133 209-447) above

Row | Compound | Cell LXRα efficacy [2] | EC50 (LXR α LBD protein [4]) | FRET LXRα efficacy (LXR α LBD protein [4]) | EC50 ([2]; agonist mode) | also measured
1 | CS(=O)(=O)c1cccc(N2CCN(C[C@H]3CC[C@@H](C(F)(F)F)CC3)[C@H](c3ccccc3)C2)c1 (single isomer, unassigned) [48-30] | 4509 (17) % | 12900 nM | 55% | – | Ki (LXR α LBD protein [1]): 2540 nM; EC50 [2]: 4.51 µM; Cell LXRβ efficacy ([3]; agonist mode): 28%; EC50 ([3]; agonist mode, read-out: Cell LXRβ EC50): 1630 nM
2 | CC(C)[C@@H]1CN(c2ccc(F)c(S(C)(=O)=O)c2)CCN1c1nccc(C2CC2)n1 [7-10, (R)-4-cyclopropyl-2-(4-(4-fluoro-3-(methylsulfonyl)phenyl)-2-isopropylpiperazin-1-yl)pyrimidine] | 586 (42) % | 292 nM | 55% | – | Ki (LXR α LBD protein [1]): 236 nM; Ki (LXR β LBD protein [5]): 13 nM; EC50 [2]: 0.586 µM; Cell LXRβ efficacy [3]: 95 (23) %; EC50 [3]: 95 nM
3 | CC(C)[C@@H]1CN(c2ccc(F)c(S(C)(=O)=O)c2)CCN1c1nc2ccc(C#N)cc2s1 [7-53, (R)-2-(4-(4-fluoro-3-(methylsulfonyl)phenyl)-2-isopropylpiperazin-1-yl)benzo[d]thiazole-6-carbonitrile] | 795 (40) % | > 50000 nM | – | 0.795 µM | Ki (LXR α LBD protein [1]): 553 nM; Ki (LXR β LBD protein [5]): 27 nM; EC50 [3]: 350 nM; Cell LXRβ efficacy ([3]; agonist mode): 350 (26) %
4 | CC(C)[C@@H]1CN(c2cccc(S(N)(=O)=O)c2)CCN1c1nccc(C(F)(F)F)n1 [7-60, (R)-3-(3-isopropyl-4-(4-(trifluoromethyl)pyrimidin-2-yl)piperazin-1-yl)benzenesulfonamide] | 248 (95) % | 84 nM | 97% | 0.248 µM | Ki (LXR α LBD protein [1]): 873 nM; Ki (LXR β LBD protein [5]): 146 nM; EC50 [3]: 59 nM; Cell LXRβ efficacy ([3]; agonist mode): 59 (75) %
5 | CS(=O)(=O)c1cccc(N2CCN(Cc3cccc(C(F)(F)F)c3)C(c3ccccc3)C2)c1 (centres unmarked) [46-13, 4-(3-(methylsulfonyl)phenyl)-2-phenyl-1-(3-(trifluoromethyl)benzyl)piperazine] | – | 1900 nM | 28% | > 20 µM | –
6 | CS(=O)(=O)c1cccc(N2CCN(Cc3ccc(C(F)(F)F)c(Cl)c3)[C@H](Cc3ccccc3)C2)c1 [46-33, (R)-2-benzyl-1-(3-chloro-4-(trifluoromethyl)benzyl)-4-(3-(methylsulfonyl)phenyl)piperazine] | 2354 (44) % | 2540 nM | 37% | 2.35 µM | –
7 | Cc1ccc(CN2CCN(c3cccc(S(C)(=O)=O)c3)CC2c2ccccc2)cn1 (centres unmarked) [46-40, 1-((6-methylpyridin-3-yl)methyl)-4-(3-(methylsulfonyl)phenyl)-2-phenylpiperazine] | – | 4120 nM | 38% | > 20 µM | –
8 | CC1(c2ccccc2)CN(c2cccc(S(C)(=O)=O)c2)CCN1Cc1ccc(C(F)(F)F)nc1 (centres unmarked) [46-49, 2-methyl-4-(3-(methylsulfonyl)phenyl)-2-phenyl-1-((6-(trifluoromethyl)pyridin-3-yl)methyl)piperazine] | 3237 (12) % | 264 nM | 10% | 3.24 µM | –
9 | CS(=O)(=O)c1cccc(N2CCN(Cc3ccc(C(F)(F)F)nc3)C(c3ccc(F)cc3)C2)c1 (centres unmarked) [46-51, 2-(4-fluorophenyl)-4-(3-(methylsulfonyl)phenyl)-1-((6-(trifluoromethyl)pyridin-3-yl)methyl)piperazine] | 3658 (17) % | 2300 nM | 41% | 3.66 µM | –
10 | CS(=O)(=O)c1cc(N2CCN(Cc3ccc(C(F)(F)F)nc3)C(c3ccccc3)C2)ccc1F (centres unmarked) [46-52, 4-(4-fluoro-3-(methylsulfonyl)phenyl)-2-phenyl-1-((6-(trifluoromethyl)pyridin-3-yl)methyl)piperazine] | 11699 (17) % | 5200 nM | 20% | 11.7 µM | –
11 | CS(=O)(=O)c1cccc(N2CCN(Cc3ccc(C(F)(F)F)nc3)C(c3ccc(Cl)cc3)C2)c1 (centres unmarked) [46-54, 2-(4-chlorophenyl)-4-(3-(methylsulfonyl)phenyl)-1-((6-(trifluoromethyl)pyridin-3-yl)methyl)piperazine] | – | – | 49% | > 20 µM | –
12 | CS(=O)(=O)c1cc(N2CCN(Cc3ccc(C(F)(F)F)nc3)C(c3ccccc3)C2)ccc1C(N)=O (centres unmarked) [46-58, 2-(methylsulfonyl)-4-(3-phenyl-4-((6-(trifluoromethyl)pyridin-3-yl)methyl)piperazin-1-yl)benzamide] | 6986 (8) % | > 50000 nM | – | 6.99 µM | –
13 | CS(=O)(=O)c1cccc(N2CCN(Cc3ccc(C(F)(F)F)nc3)C(c3ccccc3Br)C2)c1 (centres unmarked) [46-60, 2-(2-bromophenyl)-4-(3-(methylsulfonyl)phenyl)-1-((6-(trifluoromethyl)pyridin-3-yl)methyl)piperazine] | 4383 (33) % | – | 39% | 4.38 µM | –
14 | CS(=O)(=O)c1cccc(N2CCN(Cc3ccc(C(F)(F)F)cn3)[C@H](c3ccccc3)C2)c1 [46-63, (R)-4-(3-(methylsulfonyl)phenyl)-2-phenyl-1-((5-(trifluoromethyl)pyridin-2-yl)methyl)piperazine] | – | – | – | – | EC50 [3]: > 20000 nM; FRET LXRβ efficacy (LXR β LBD protein [6]): 50%; EC50 (LXR β LBD protein [6]): 7.1 µM
15 | CS(=O)(=O)c1cccc(N2CCN(Cc3ccc(C(F)(F)F)o3)[C@H](c3ccccc3)C2)c1 [46-65, (R)-4-(3-(methylsulfonyl)phenyl)-2-phenyl-1-((5-(trifluoromethyl)furan-2-yl)methyl)piperazine] | – | – | – | – | EC50 [3]: > 20000 nM; FRET LXRβ efficacy (LXR β LBD protein [6]): 25%; EC50 (LXR β LBD protein [6]): 5.77 µM
16 | CS(=O)(=O)c1cc(N2CCN(Cc3ccc(C(F)(F)F)c(Cl)c3)C(c3ccccc3)C2)ccc1CO (centres unmarked) [47-4, (4-(4-(3-chloro-4-(trifluoromethyl)benzyl)-3-phenylpiperazin-1-yl)-2-(methylsulfonyl)phenyl)methanol] | 914 (96) % | 224 nM | 109% | 0.914 µM | –
17 | CS(=O)(=O)c1cccc(N2CCN(CC3CCC(F)(F)CC3)[C@@H](c3ccccc3)C2)c1 [48-13, (S)-1-((4,4-difluorocyclohexyl)methyl)-4-(3-(methylsulfonyl)phenyl)-2-phenylpiperazine] | 2624 (20) % | 632 nM | 23% | 2.62 µM | Ki (LXR α LBD protein [1]): 867 nM
18 | CC(C)[C@@H]1CN(c2ccc(C#N)c(S(C)(=O)=O)c2)CCN1C(=O)OC(C)(C)C [Cpd No 3-1, tert-butyl (R)-4-(4-cyano-3-(methylsulfonyl)phenyl)-2-isopropylpiperazine-1-carboxylate] | 12810 (20) % | 18000 nM | 76% | 12.8 µM | –
19 | CC(C)[C@@H]1CN(c2ccc(C(F)(F)F)c(S(C)(=O)=O)c2)CCN1C(=O)OC(C)(C)C [Cpd No 3-2, tert-butyl (R)-2-isopropyl-4-(3-(methylsulfonyl)-4-(trifluoromethyl)phenyl)piperazine-1-carboxylate] | 14412 (19) % | 12000 nM | 54% | 14.4 µM | –
20 | Cc1cc(C)nc(N2CCN(c3cccc(S(C)(=O)=O)c3)C[C@H]2C(C)C)n1 [Cpd No 7-3, (R)-2-(2-isopropyl-4-(3-(methylsulfonyl)phenyl)piperazin-1-yl)-4,6-dimethylpyrimidine] | 7923 (24) % | 510 nM | 36% | 7.92 µM | –
21 | CC(C)[C@@H]1CN(c2cccc(S(C)(=O)=O)c2)CCN1c1ncc(C2CC2)cn1 [Cpd No 7-5, (R)-5-cyclopropyl-2-(2-isopropyl-4-(3-(methylsulfonyl)phenyl)piperazin-1-yl)pyrimidine] | 501 (64) % | 313 nM | 60% | – | Ki (LXR α LBD protein [1]): 346 nM; Ki (LXR β LBD protein [5]): 26 nM; EC50 [2]: 0.501 µM; Cell LXRβ efficacy [3]: 93 (32) %; EC50 [3]: 93 nM
22 | CS(=O)(=O)c1cccc(N2CCN(Cc3ccc(C(F)(F)F)c(Cl)c3)[C@@H](Cc3ccccc3)C2)c1 [Cpd No 45-1, (S)-2-benzyl-1-(3-chloro-4-(trifluoromethyl)benzyl)-4-(3-(methylsulfonyl)phenyl)piperazine] | 3618 (61) % | – | 39% | – | EC50 [2]: 3.62 µM
23 | CC1(C)CCC(CN2CCN(c3cccc(S(C)(=O)=O)c3)C[C@H]2c2ccccc2)CC1 [Cpd No 48-3, (R)-1-((4,4-dimethylcyclohexyl)methyl)-4-(3-(methylsulfonyl)phenyl)-2-phenylpiperazine] | 4273 (20) % | 5190 nM | 31% | – | Ki (LXR α LBD protein [1]): 2340 nM; EC50 [2]: 4.27 µM
24 | tert-butyl (S)-2-isobutyl-4-(3-(methylsulfonyl)phenyl)piperazine-1-carboxylate [1-2] | 9219 (6) % | 6810 nM | 55% | – | EC50 [2]: 9.22 µM

— patent US10144715B2, “Piperazine derivatives as liver X receptor modulators” (priority 2014, dated 2018)
